Our source for the Ki values is BindingDB's records for doi:10.1111/j.1471-4159.1989.tb07357.x (Albany Medical College, 1989).

The target of experiment [1] is 5-hydroxytryptamine 1D receptor (Bos taurus, UniProt Q8MI13).
Experiment [2] concerns the target 5-hydroxytryptamine receptor 1E (Homo sapiens, UniProt P28566).

Sequence of 5-hydroxytryptamine 1D receptor (Q8MI13 whole entry): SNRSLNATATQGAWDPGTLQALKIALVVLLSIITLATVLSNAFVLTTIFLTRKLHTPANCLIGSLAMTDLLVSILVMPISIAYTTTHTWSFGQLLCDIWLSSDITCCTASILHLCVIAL
Sequence of 5-hydroxytryptamine receptor 1E (P28566 whole entry): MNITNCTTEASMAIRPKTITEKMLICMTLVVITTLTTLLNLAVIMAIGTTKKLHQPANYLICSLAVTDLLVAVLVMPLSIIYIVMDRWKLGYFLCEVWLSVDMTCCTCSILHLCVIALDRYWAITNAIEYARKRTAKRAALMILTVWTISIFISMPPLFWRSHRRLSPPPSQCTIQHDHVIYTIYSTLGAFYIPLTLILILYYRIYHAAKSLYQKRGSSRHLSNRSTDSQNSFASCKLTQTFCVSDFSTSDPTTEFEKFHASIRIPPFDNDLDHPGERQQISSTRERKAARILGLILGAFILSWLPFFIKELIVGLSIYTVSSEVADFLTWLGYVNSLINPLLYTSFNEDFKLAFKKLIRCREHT

The Ki is a dissociation constant, usually derived from enzyme kinetics or from competition with a known ligand. A lower Ki goes with higher affinity. As to `FC(F)(F)c1cccc(N2CCNCC2)c1` [TFMPP], the Ki stood at 150 nM in experiment [1] and 570 nM in experiment [2]. On to `CN1C2CCC1CC(OC(=O)c1c[nH]c3ccccc13)C2` (stereo not given), for which the Ki in experiment [1] and in experiment [2] was over 10000 nM each time. In experiment [2], `NCCc1c[nH]c2ccc(C(N)=O)cc12` [[3H]-5-carboxamidotryptamine] yielded a Ki of 910 nM. On the same count and under the same terms, for `CN1C[C@H](C(=O)N[C@]2(C)O[C@@]3(O)[C@@H]4CCCN4C(=O)[C@H](Cc4ccccc4)N3C2=O)C=C2c3cccc4[nH]cc(c34)C[C@H]21` [12'-hydroxy-2'-methyl-5'alpha-(phenylmethyl)ergotaman-3',6',18-trione] the value was 155 nM.

For the compound `COc1cc(CC(C)N)c(OC)cc1Br` (stereo not drawn) [2-(4-Bromo-2,5-dimethoxy-phenyl)-1-methyl-ethylamine((-)-DOB)], the Ki in experiment [1] is 1000 nM; in experiment [2], 556 nM. For `O=C(c1ccc(F)cc1)C1CCN(CCn2c(=O)[nH]c3ccccc3c2=O)CC1` [3-(2-{4-[(4-fluorophenyl)carbonyl]piperidin-1-yl}ethyl)-1,2,3,4-tetrahydroquinazoline-2,4-dione] the same measures were 3200 nM and over 10000 nM. Consider `NCCc1c[nH]c2ccc(O)cc12` [[3H]-5-HT], for which the affinity in experiment [1], expressed as Ki, was 1.9 nM. In other words, the single-digit nanomolar range. In the case of `CC[C@@H](CO)NC(=O)[C@@H]1C=C2c3cccc4c3c(cn4C)C[C@H]2N(C)C1`, the results for the Ki in experiment [1] and in experiment [2] were 8.8 nM and 59 nM, respectively.

Turning to `CCCN(CCC)C1CCc2cccc(O)c2C1` (stereo not given), the inhibitory constant (Ki) in experiment [1] came to 200 nM; in experiment [2], 826 nM.
